Laboratory results as given in patent publication EP0452507A1, “MEDICINE COMPRISING TOCOPHERYL GLYCOSIDE AS ACTIVE INGREDIENT” (NIPPON HYPOX LABORATORIES INCORPORATED, priority 1989, dated 1991).

Assays:
[1] = system: antigen-adjuvant-induced inflammation; assay: antigen-adjuvant-induced inflammation, right hind paw swelling by volumetry; type: in vivo, rats; conditions: for inhibition activity against antigen-adjuvant-induced inflammations / average of the swelling ratios: 10 mg/kg intraperitoneally; for average of the swelling ratios: 0.5 hour after administration of antigen and adjuvant, versus Control group
Experimental: (§1) At first, five groups each consisting of five SD male rats weighing 180 to 220 g (total 25 rats) were prepared, and each rat was measured for a size of the subplantar region of the right hind paw. As an antigen to cause an antigen-adjuvant-induced inflammation, 0.2 mg/rat of egg-white albumin was used. Further, as an immune aid (adjuvant), a mixture consisting of 4 mg/rat of aluminum hydroxide and 0.1 ml/rat of pertussis vaccine was prepared.
One out of the five groups was used as Control group. A physiological saline solution of 10 % Nikkol (trade name, dissolving aid, supplied by Nikko Chemical Co., Ltd.) was administered intraperitoneally to each rat, and 0.5 hour after the administration of the physiological saline solution of 10 % Nikkol, the above antigen and adjuvant were administered intracutaneously into the subplantar region of the right hind paw. Then, 0.5, 1, 2, 4, 6, 12 and 24 hours after the administration of the antigen and adjuvant, the swelling on the subplantar region of the right hind paw of each rat was measured by volumetry. And, the average of swelling ratios of the group in every measurement was determined on the basis of the measurement values of the sizes of subplantar regions of the right hind paws of the rats obtained before the administration of the physiological saline solution of 10 % Nikkol.
One of the remaining four groups was used as Example group @. A physiological saline solution of 10 % Nikkol containing VIE-MAN was administered intraperitoneally into each rat of this group in such a dose that the amount of VIE-MAN was 10 mg/kg, and 0.5 hours after the administration of the physiological saline solution of 10 % Nikkol containing VIE-MAN, the above antigen and adjuvant were administered intracutaneously into the subplantar region of the right hind paw. Thereafter, the swelling on the subplantar region of the right hind paw of each rat was measured in the same manner as that for Control group, and the average of swelling ratios of the group in every measurement was determined.
(§2) The same procedure as that for Example group ⑧ was carried out except that a physiological saline solution of 10 % Nikkol containing hydrocortisone which was an anti-inflammatory preparation (immunosuppressive preparation) in place of the physiological saline solution of 10 % Nikkol containing VIE-MAN was administered intraperitoneally in such a dose that the amount of the hydrocortisone was 10 mg/kg.
as §2, with “diphenhydramine” for “hydrocortisone”, “antihistamine” for “anti-inflammatory”, “preparation” for “preparation (immunosuppressive preparation)”
as §2, with “containing indomethacin” for “containing hydrocortisone”, “was a nonsteroidal” for “was an”, “preparation (antipyretic analgesic antiphlogistic” for “preparation (immunosuppressive”, “the indomethacin” for “the hydrocortisone”
as §1, with “first, four” for “first, five”, “five male” for “five”, “SD” for “SD male”, “(total 20” for “(total 25”, “an antigen- adjuvant-induced” for “an antigen-adjuvant-induced”, “was prepared.” for “was used.”
One out of the four groups was used an Control group, and the procedure for Control group in Example 4 was repeated to determine the average of the swelling ratios as a group unit.

[2] = system: stomach (mucosal ulcer in the glandular portion); type: in vivo, rats
Experimental: 15 male SD rats weighing 180 to 220 g were used. These rats were fasted for 24 hours, and separated to three groups each consisting of 5 rats.
Then, one group was used as Control group. A physiological saline solution of 10 % Nikkol was administered intraperitoneally, and the rats were sacrificed with ether 16 hours after the administration. The stomach of each rat was removed, and after 10 ml of physiological saline was injected into the stomachs, the stomachs were fixed by immersing them in a 1 % formalin for 10 minutes. Each stomach was dissected along the greater curvatura, and the length (mm) of mucosal ulcer which occurred in the glandular portion was measured under an anatomical microscope (x 10). The average of the ulcer lengths of the five rats was taken as an ulcer index.
One out of the remaining two groups was used as Example group @. The procedure for Control group was repeated except that a physiological saline solution of 10 % Nikkol containing VIE-MAN in place of the physiological saline solution of 10 % Nikkol was administered intraperitoneally in such a dose that the amount of VIE-MAN was 300 mg/kg, and the ulcer index was determined.
The remaining one group was used as Comparative Example group ⓘ. The procedure for Example group 17 was repeated except that a physiological saline solution of 10 % Nikkol containing indomethacin, which was a nonsteroidal anti-inflammatory preparation (antipyretic analgesic antiphlogistic preparation), in place of the physiological saline solution of 10 % Nikkol was administered intraperitoneally in such a dose that the amount of the indomethacin was 20 mg/kg, and the ulcer index was determined.

| SMILES | inhibition activity against antigen-adjuvant-induced inflammations ([1]; Example 5, Fig. 4, 10 mg/kg) | average of the swelling ratios ([1]; Example 5, Fig. 4) | side effect on the digestive system ([2]; rat, in vivo) | inhibition activity against antigen-adjuvant-induced inflammations ([1]; Example 4, Fig. 3) | average of the swelling ratios ([1]; Example 4, Fig. 3) | mucosal ulcer (ulcer index) ([2]; rat, in vivo, ip, 300 mg/kg) | inhibition activity against antigen-adjuvant-induced inflammation compared with VIE-MAN ([1]; Example 4, Fig. 3, both 10 mg/kg intraperitoneally) | ulcer index ([2]; Example 8, Fig. 7, 20 mg/kg intraperitoneally, fasted rats, 16 hours after administration) |
| --- | --- | --- | --- | --- | --- | --- | --- | --- |
| Cc1c(C)c2c(c(C)c1OC1OC(CO)C(O)C(O)C1O)CCC(C)(CCCC(C)CCCC(C)CCCC(C)C)O2 (racemic) [VIE-GLU, dl-α-tocopheryl-,8-D-glucoside] | almost as superior as VIE-MAN | significantly lower than that of the swelling ratios of Control group | nearly similar results to that of the test on VIE-MAN | – | – | – | – | – |
| Cc1c(C)c2c(c(C)c1OC1OC(CO)C(O)C(O)C1O)CCC(C)(CCCC(C)CCCC(C)CCCC(C)C)O2 (racemic) [VIE-MAN, dl-a-tocopheryl-a-D-mannoside] | – | – | – | excellent inhibition activity | significantly lower than that of the swelling ratios of Control group | no mucosal ulcer was observed | – | – |
| COc1ccc2c(c1)c(CC(=O)O)c(C)n2C(=O)c1ccc(Cl)cc1 [indomethacin, reference compound] | – | – | – | significant inhibition activity at and after 2 hours | – | – | much lower than that of VIE-MAN | about 30 mm |
